Target: T1, CgPTPM1 (Colletotrichum graminicola, UniProt E3QMN0)
T1 construct: gene GLRG_07262; full-length ORF (1869 bp cDNA, 622 residues) in pET28a, His-tag, E. coli BL21, Ni-NTA, about 74 kDa
Test: colorimetric phosphatase assay, […] nm
Type: biochemical
Conditions: 0.1 M Tris, 0.25 M NaCl, 5 mM EDTA, 10 mM DTT, pH 8.2, 37 C, 30 min

T1 sequence (E3QMN0 entry or part of it): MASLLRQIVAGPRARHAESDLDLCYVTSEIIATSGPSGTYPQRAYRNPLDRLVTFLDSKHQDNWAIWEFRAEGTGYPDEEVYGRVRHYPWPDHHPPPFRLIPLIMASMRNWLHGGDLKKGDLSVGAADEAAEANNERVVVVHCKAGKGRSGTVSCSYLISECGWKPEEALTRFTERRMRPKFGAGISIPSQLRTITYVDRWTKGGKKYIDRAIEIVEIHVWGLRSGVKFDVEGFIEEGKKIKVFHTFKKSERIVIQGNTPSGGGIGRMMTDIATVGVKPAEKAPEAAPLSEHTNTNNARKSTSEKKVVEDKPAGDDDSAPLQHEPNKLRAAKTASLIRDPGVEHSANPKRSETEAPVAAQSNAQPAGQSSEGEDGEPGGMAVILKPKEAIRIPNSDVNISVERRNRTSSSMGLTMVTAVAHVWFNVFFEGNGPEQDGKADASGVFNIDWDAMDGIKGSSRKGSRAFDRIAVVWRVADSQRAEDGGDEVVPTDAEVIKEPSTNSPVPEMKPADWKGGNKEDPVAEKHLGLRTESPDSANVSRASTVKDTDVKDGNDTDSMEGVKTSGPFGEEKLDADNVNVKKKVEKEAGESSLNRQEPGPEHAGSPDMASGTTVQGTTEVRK

## O=[N+]([O-])c1ccc(OP(=O)(O)O)cc1 [pNPP, p-nitrophenyl phosphate]
  colorimetric phosphatase assay, 405 nm: Using pNPP as a substrate, the protein phosphatase activity was detected using the colorimetric method

— paper PMC7841309, “Involvement of the Mitochondrial Protein Tyrosine Phosphatase PTPM1 in the Promotion of Conidiation, Development, and Pathogenicity in Colletotrichum graminicola” (Frontiers in Microbiology, 2021)
